Our source for the normalised inhibition (eCFP-eYFP dual reporter) values is the OligoGym collection.

Oligonucleotides are written 5' to 3', each unit as a sugar letter and its base; * is a phosphorothioate linkage, no mark a phosphodiester; rarer units and linkages stand in square brackets, end groups in braces. Plain capitals give the bases only. d = 2'-deoxy (DNA); r = 2'-OH (RNA)
Further: test concentration or dose not given here.

One data set concerns the target DENND5A. The experiment in a line: reporter assay of Huesken 2005. The note with it: siRNA. A general note: Reporter assays use an easily measured gene product as a stand-in for the process of interest.
“sense rArArCrArGrGrGrArGrCrArArArUrGrCrArArAdTdT / antisense rUrUrUrGrCrArUrUrUrGrCrUrCrCrCrUrGrUrUdGdG” gave a normalised inhibition (eCFP-eYFP dual reporter) of 49.2%.
In turn, “sense rCrArGrGrArUrArUrGrArGrGrCrArCrArUrCrCdTdT / antisense rGrGrArUrGrUrGrCrCrUrCrArUrArUrCrCrUrGdAdA” returned a normalised inhibition (eCFP-eYFP dual reporter) of 46.7%.
On the same count and under the same terms, with “sense rCrArArGrArUrCrArGrGrCrUrGrUrUrGrArArUdTdT / antisense rArUrUrCrArArCrArGrCrCrUrGrArUrCrUrUrGdTdC” the figure was 55.7%; with “sense rArUrCrCrGrCrCrArGrCrCrCrArArArCrUrGrUdTdT / antisense rArCrArGrUrUrUrGrGrGrCrUrGrGrCrGrGrArUdAdG”, 40.9%.
With “sense rCrUrArUrCrArCrCrUrCrCrUrGrUrCrUrUrUrCdTdT / antisense rGrArArArGrArCrArGrGrArGrGrUrGrArUrArGdAdG”, the normalised inhibition (eCFP-eYFP dual reporter) turned out to be 63.1%.
“sense rUrGrArArGrGrArArUrGrCrCrGrCrArArUrArAdTdT / antisense rUrUrArUrUrGrCrGrGrCrArUrUrCrCrUrUrCrAdGdC” registered a normalised inhibition (eCFP-eYFP dual reporter) of 77.7%.
The substance “sense rUrGrCrCrGrCrUrCrCrCrArCrCrUrCrCrUrGrGdTdT / antisense rCrCrArGrGrArGrGrUrGrGrGrArGrCrGrGrCrAdCdC” came in with a normalised inhibition (eCFP-eYFP dual reporter) of 24.9%.
On the same count and under the same terms, with “sense rArUrUrGrArCrArArCrCrArCrUrUrCrArUrUrGdTdT / antisense rCrArArUrGrArArGrUrGrGrUrUrGrUrCrArArUdGdT” the figure was 48.7%.
Turning to “sense rArGrArGrUrGrCrCrUrCrCrArArGrCrUrGrArAdTdT / antisense rUrUrCrArGrCrUrUrGrGrArGrGrCrArCrUrCrUdCdA”, the normalised inhibition (eCFP-eYFP dual reporter) came to 66.9%.
Still for that read-out and setting: as for “sense rArCrCrCrCrArGrCrArGrCrArArUrArArGrGrAdTdT / antisense rUrCrCrUrUrArUrUrGrCrUrGrCrUrGrGrGrGrUdCdT”, the figure is 64.9%.
As for “sense rArArCrCrUrArUrUrArUrGrArGrArCrArUrUrAdTdT / antisense rUrArArUrGrUrCrUrCrArUrArArUrArGrGrUrUdTdG”, the normalised inhibition (eCFP-eYFP dual reporter) was 66.3%.
The same measure, in the same setting: with “sense rArGrUrUrGrCrCrArGrArGrGrArCrUrUrGrCrCdTdT / antisense rGrGrCrArArGrUrCrCrUrCrUrGrGrCrArArCrUdCdA” the figure was 71.7%.
Still for that read-out and setting: with “sense rCrUrCrArArGrArGrGrCrUrArArCrCrUrCrUrGdTdT / antisense rCrArGrArGrGrUrUrArGrCrCrUrCrUrUrGrArGdGdC” the figure was 52.3%; with “sense rUrUrGrCrArUrUrCrCrUrArCrGrArGrCrUrUrCdTdT / antisense rGrArArGrCrUrCrGrUrArGrGrArArUrGrCrArAdAdG”, 50.8%; with “sense rUrUrCrUrGrGrGrGrUrCrUrArUrGrGrGrCrCrAdTdT / antisense rUrGrGrCrCrCrArUrArGrArCrCrCrCrArGrArAdAdA”, 63.2%.
The same measure, in the same setting: with “sense rUrCrUrUrGrArUrUrCrArGrArArCrGrUrArGrGdTdT / antisense rCrCrUrArCrGrUrUrCrUrGrArArUrCrArArGrAdAdG” the figure was 29.1%.
On to “sense rArUrGrGrCrUrGrGrUrGrGrArGrUrArUrGrUrGdTdT / antisense rCrArCrArUrArCrUrCrCrArCrCrArGrCrCrArUdTdT”, for which the normalised inhibition (eCFP-eYFP dual reporter) was 71.9%.
Turning to “sense rCrCrArUrGrCrCrUrUrUrArUrUrArUrCrArCrAdTdT / antisense rUrGrUrGrArUrArArUrArArArGrGrCrArUrGrGdAdA”, the normalised inhibition (eCFP-eYFP dual reporter) worked out at 72.5%.
The same measure, in the same setting: as for “sense rArGrArArCrUrUrGrGrGrGrArArGrCrUrUrArCdTdT / antisense rGrUrArArGrCrUrUrCrCrCrCrArArGrUrUrCrUdGdG”, the figure is 88.2%; as for “sense rCrUrGrUrCrUrUrUrCrArArUrGrCrCrGrUrCrGdTdT / antisense rCrGrArCrGrGrCrArUrUrGrArArArGrArCrArGdGdA”, 47.4%.
“sense rUrGrGrGrGrUrCrUrArUrGrGrGrCrCrArArUrAdTdT / antisense rUrArUrUrGrGrCrCrCrArUrArGrArCrCrCrCrAdGdA” had a normalised inhibition (eCFP-eYFP dual reporter) of 66.7%.
The same measure, in the same setting: as for “sense rCrUrUrGrArGrArGrCrUrArCrArUrArUrArCrAdTdT / antisense rUrGrUrArUrArUrGrUrArGrCrUrCrUrCrArArGdGdG”, the figure is 74.2%; as for “sense rArGrArCrCrCrArGrGrCrUrGrArUrCrCrCrArGdTdT / antisense rCrUrGrGrGrArUrCrArGrCrCrUrGrGrGrUrCrUdTdG”, 75.1%.
As to “sense rCrArGrGrGrArGrCrArArArUrGrCrArArArArCdTdT / antisense rGrUrUrUrUrGrCrArUrUrUrGrCrUrCrCrCrUrGdTdT”, the normalised inhibition (eCFP-eYFP dual reporter) is 67.9%.
Still for that read-out and setting: as for “sense rGrGrGrArArArUrCrArGrCrCrUrUrArUrGrGrUdTdT / antisense rArCrCrArUrArArGrGrCrUrGrArUrUrUrCrCrCdCdT”, the figure is 61.1%; as for “sense rUrCrUrGrArUrGrUrArCrUrUrUrCrCrArCrUrGdTdT / antisense rCrArGrUrGrGrArArArGrUrArCrArUrCrArGrAdCdT”, 47.9%; as for “sense rCrArCrCrUrArCrUrCrUrCrCrGrUrArCrArUrCdTdT / antisense rGrArUrGrUrArCrGrGrArGrArGrUrArGrGrUrGdTdC”, 54.7%.
On the same count and under the same terms, with “sense rUrGrGrArUrGrArCrCrGrGrUrCrArArArGrCrUdTdT / antisense rArGrCrUrUrUrGrArCrCrGrGrUrCrArUrCrCrAdGdG” the figure was 67.7%.
On the same count and under the same terms, as for “sense rCrCrArGrArGrGrGrArGrArArGrUrArCrArUrCdTdT / antisense rGrArUrGrUrArCrUrUrCrUrCrCrCrUrCrUrGrGdTdC”, the figure is 34.5%; as for “sense rGrCrUrGrArArGrArGrGrCrUrGrCrGrGrGrCrCdTdT / antisense rGrGrCrCrCrGrCrArGrCrCrUrCrUrUrCrArGrCdTdT”, 37.4%; as for “sense rGrGrArArArArGrUrUrGrGrArArGrUrGrCrGrUdTdT / antisense rArCrGrCrArCrUrUrCrCrArArCrUrUrUrUrCrCdAdG”, 60.8%.
For the substance “sense rCrCrUrCrUrArCrCrArCrArUrGrCrArCrArArUdTdT / antisense rArUrUrGrUrGrCrArUrGrUrGrGrUrArGrArGrGdGdT”, the normalised inhibition (eCFP-eYFP dual reporter) came to 68.3%.
Same read-out and setting: as for “sense rCrArGrUrUrCrCrCrCrArArCrArArArUrUrGrGdTdT / antisense rCrCrArArUrUrUrGrUrUrGrGrGrGrArArCrUrGdTdG”, the figure is 67.9%; as for “sense rCrArGrCrGrCrUrUrCrArArCrUrCrCrUrArUrGdTdT / antisense rCrArUrArGrGrArGrUrUrGrArArGrCrGrCrUrGdCdA”, 49.9%; as for “sense rArCrGrCrUrGrUrUrGrCrUrCrUrGrUrGrGrArGdTdT / antisense rCrUrCrCrArCrArGrArGrCrArArCrArGrCrGrUdCdA”, 60.7%.
Still for that read-out and setting: as for “sense rCrCrArGrCrCrUrUrUrGrUrGrArUrCrUrCrCrUdTdT / antisense rArGrGrArGrArUrCrArCrArArArGrGrCrUrGrGdCdA”, the figure is 47.1%; as for “sense rArArCrUrGrGrGrGrUrGrArGrCrCrUrGrGrArAdTdT / antisense rUrUrCrCrArGrGrCrUrCrArCrCrCrCrArGrUrUdCdT”, 58.4%; as for “sense rGrGrCrCrArGrCrCrArGrCrArArCrArArGrUrGdTdT / antisense rCrArCrUrUrGrUrUrGrCrUrGrGrCrUrGrGrCrCdCdA”, 73.7%.
As to “sense rArCrArUrGrArArGrArUrUrGrGrArCrArArGrGdTdT / antisense rCrCrUrUrGrUrCrCrArArUrCrUrUrCrArUrGrUdCdA”, the normalised inhibition (eCFP-eYFP dual reporter) came out at 70.5%.
For the substance “sense rCrUrGrArGrGrArUrCrUrCrCrCrUrGrArUrUrCdTdT / antisense rGrArArUrCrArGrGrGrArGrArUrCrCrUrCrArGdGdG”, the normalised inhibition (eCFP-eYFP dual reporter) was 60.6%.
Still for that read-out and setting: with “sense rCrUrUrCrUrArArArGrCrCrArGrGrGrArUrGrGdTdT / antisense rCrCrArUrCrCrCrUrGrGrCrUrUrUrArGrArArGdCdC” the figure was 46.4%; with “sense rCrCrCrCrGrCrCrGrCrUrGrCrArGrCrArGrUrCdTdT / antisense rGrArCrUrGrCrUrGrCrArGrCrGrGrCrGrGrGrGdTdC”, 61.8%.
Same read-out and setting: as for “sense rArGrGrArCrArArCrCrGrGrCrArGrArGrArArAdTdT / antisense rUrUrUrCrUrCrUrGrCrCrGrGrUrUrGrUrCrCrUdGdA”, the figure is 67%; as for “sense rCrUrGrGrArUrUrGrCrCrCrUrGrCrUrGrGrCrUdTdT / antisense rArGrCrCrArGrCrArGrGrGrCrArArUrCrCrArGdTdG”, 63.7%.
On the same count and under the same terms, as for “sense rArGrCrUrGrArArGrArGrGrCrUrGrCrGrGrGrCdTdT / antisense rGrCrCrCrGrCrArGrCrCrUrCrUrUrCrArGrCrUdTdG”, the figure is 54.9%; as for “sense rCrCrUrUrArUrGrGrUrCrCrCrArCrCrUrGrUrUdTdT / antisense rArArCrArGrGrUrGrGrGrArCrCrArUrArArGrGdCdT”, 62.5%; as for “sense rUrGrArArUrGrUrUrCrGrGrArCrArCrCrUrArCdTdT / antisense rGrUrArGrGrUrGrUrCrCrGrArArCrArUrUrCrAdAdC”, 49%.
Consider “sense rUrUrCrGrUrGrUrGrCrUrGrCrArGrArCrArUrUdTdT / antisense rArArUrGrUrCrUrGrCrArGrCrArCrArCrGrArAdTdC”, for which the normalised inhibition (eCFP-eYFP dual reporter) came out at 40.2%.

For another data set, the target named is MRFAP1. As to the kind of experiment: reporter assay of Huesken 2005. The conditions noted are these: siRNA.
With “sense rGrCrGrCrCrCrGrUrGrCrGrCrArArCrCrGrGrGdTdT / antisense rCrCrCrGrGrUrUrGrCrGrCrArCrGrGrGrCrGrCdGdC”, the normalised inhibition (eCFP-eYFP dual reporter) was determined as 55.3%.
